These are literature values, as cited in patent publication US11007152B2, “Pharmaceutical composition comprising amorphous lenalidomide and an antioxidant” (Synthon B.V., priority 2015, dated 2021).

`Nc1cccc2c1CN(C1CCC(=O)NC1=O)C2=O` (racemic) [Lenalidomide, (RS)-3-(4-Amino-1-oxo 1,3-dihydro-2H-isoindol-2-yl)piperidine-2,6-dione]: the solubility in water result is given as “slightly soluble”.
